ChEMBL document CHEMBL4507288 (2021)

What was measured:
[1] = target: 5-hydroxytryptamine receptor 1D (Homo sapiens, UniProt P28221); test: GPCRScan assay: inhibition of 5-HT1D; parameters: radioligand conc. used [nm] 1.0 – 2.0, parental cells HEKT
[2] = system: Epidermal growth factor receptor (Homo sapiens), P00533 [UNDEFINED MUTATION]; conditions: Compound concentration 1000.0 nM
[3] = target: Phosphatidylinositol 4-phosphate 5-kinase type-1 gamma (Homo sapiens) (UniProt O60331); conditions: Compound concentration 1000.0 nM
[4] = target: Serine/threonine-protein kinase D3 (Homo sapiens) (UniProt O94806); conditions: Compound concentration 1000.0 nM
[5] = target: Tyrosine-protein kinase FRK (Homo sapiens) (UniProt P42685); conditions: Compound concentration 1000.0 nM
[6] = target: Peripheral plasma membrane protein CASK (Homo sapiens) (UniProt O14936); conditions: Compound concentration 1000.0 nM
[7] = target: Calcium/calmodulin-dependent protein kinase type II subunit gamma (Homo sapiens) (UniProt Q13555); conditions: Compound concentration 1000.0 nM
[8] = target: Serine/threonine-protein kinase DCLK3 (Homo sapiens) (UniProt Q9C098); conditions: Compound concentration 1000.0 nM
[9] = target: Inhibitor of nuclear factor kappa-B kinase subunit beta (Homo sapiens) (UniProt O14920); conditions: Compound concentration 1000.0 nM
[10] = target: Calcium/calmodulin-dependent protein kinase type 1 (Homo sapiens) (UniProt Q14012); conditions: Compound concentration 1000.0 nM
[11] = system: Tyrosine-protein kinase ABL1 (Homo sapiens), P00519 [H396P]; conditions: Compound concentration 1000.0 nM
[12] = target: cAMP-dependent protein kinase catalytic subunit beta (Homo sapiens) (UniProt P22694); conditions: Compound concentration 1000.0 nM
[13] = target: Tyrosine-protein kinase Fer (Homo sapiens) (UniProt P16591); conditions: Compound concentration 1000.0 nM
[14] = target: Serine/threonine-protein kinase BRSK2 (Homo sapiens) (UniProt Q8IWQ3); conditions: Compound concentration 1000.0 nM
[15] = target: Megakaryocyte-associated tyrosine-protein kinase (Homo sapiens) (UniProt P42679); conditions: Compound concentration 1000.0 nM
[16] = target: Tyrosine-protein kinase Mer (Homo sapiens) (UniProt Q12866); conditions: Compound concentration 1000.0 nM
[17] = system: Receptor-type tyrosine-protein kinase FLT3 (Homo sapiens), P36888 [R834Q]; conditions: Compound concentration 1000.0 nM
[18] = system: Hepatocyte growth factor receptor (Homo sapiens), P08581 [Y1235D]; conditions: Compound concentration 1000.0 nM
[19] = target: Hormonally up-regulated neu tumor-associated kinase (Homo sapiens) (UniProt P57058); conditions: Compound concentration 1000.0 nM
[20] = target: Dual specificity protein kinase CLK3 (Homo sapiens) (UniProt P49761); conditions: Compound concentration 1000.0 nM
[21] = target: Uncharacterized serine/threonine-protein kinase SBK3 (Homo sapiens) (UniProt P0C264); conditions: Compound concentration 1000.0 nM
[22] = target: Calcium-dependent protein kinase 1 (Plasmodium falciparum) (UniProt P62344); conditions: Compound concentration 1000.0 nM
[23] = target: Casein kinase I isoform alpha-like (Homo sapiens) (UniProt Q8N752); conditions: Compound concentration 1000.0 nM
[24] = target: Cyclin-dependent kinase 14 (Homo sapiens) (UniProt O94921); conditions: Compound concentration 1000.0 nM
[25] = target: Muscle, skeletal receptor tyrosine-protein kinase (Homo sapiens) (UniProt O15146); conditions: Compound concentration 1000.0 nM
[26] = target: Serine/threonine-protein kinase 36 (Homo sapiens) (UniProt Q9NRP7); conditions: Compound concentration 1000.0 nM
[27] = target: Myosin-IIIb (Homo sapiens) (UniProt Q8WXR4); conditions: Compound concentration 1000.0 nM
[28] = target: Tyrosine-protein kinase receptor TYRO3 (Homo sapiens) (UniProt Q06418); conditions: Compound concentration 1000.0 nM
[29] = target: Serine/threonine-protein kinase B-raf (Homo sapiens) (UniProt P15056); conditions: Compound concentration 1000.0 nM
[30] = target: Serine/threonine-protein kinase 10 (Homo sapiens) (UniProt O94804); conditions: Compound concentration 1000.0 nM
[31] = system: Epidermal growth factor receptor (Homo sapiens), P00533 [T790M]; conditions: Compound concentration 1000.0 nM
[32] = target: Protein kinase C theta type (Homo sapiens) (UniProt Q04759); conditions: Compound concentration 1000.0 nM
[33] = system: Receptor-type tyrosine-protein kinase FLT3 (Homo sapiens), P36888 [UNDEFINED MUTATION]; conditions: Compound concentration 1000.0 nM
[34] = target: Cyclin-dependent kinase 8 (Homo sapiens) (UniProt P49336); conditions: Compound concentration 1000.0 nM
[35] = system: Tyrosine-protein kinase ABL1 (Homo sapiens), P00519 [F317I]; conditions: Compound concentration 1000.0 nM
[36] = target: LIM domain kinase 2 (Homo sapiens) (UniProt P53671); conditions: Compound concentration 1000.0 nM
[37] = target: Mitogen-activated protein kinase kinase kinase 20 (Homo sapiens) (UniProt Q9NYL2); conditions: Compound concentration 1000.0 nM
[38] = system: Tyrosine-protein kinase ABL1 (Homo sapiens), P00519 [F317I]; conditions: Compound concentration 1000.0 nM; remark: listed apart in the source
[39] = target: Fibroblast growth factor receptor 1 (Homo sapiens) (UniProt P11362); conditions: Compound concentration 1000.0 nM
[40] = target: Serine/threonine-protein kinase Nek6 (Homo sapiens) (UniProt Q9HC98); conditions: Compound concentration 1000.0 nM
[41] = target: MAP kinase-interacting serine/threonine-protein kinase 1 (Homo sapiens) (UniProt Q9BUB5); conditions: Compound concentration 1000.0 nM
[42] = target: Ribosomal protein S6 kinase alpha-4 (Homo sapiens) (UniProt O75676); conditions: Compound concentration 1000.0 nM
[43] = target: Tyrosine-protein kinase ABL2 (Homo sapiens) (UniProt P42684); conditions: Compound concentration 1000.0 nM
[44] = target: Serine/threonine-protein kinase ULK3 (Homo sapiens) (UniProt Q6PHR2); conditions: Compound concentration 1000.0 nM
[45] = system: Mast/stem cell growth factor receptor Kit (Homo sapiens), P10721 [V559D,T670I]; conditions: Compound concentration 1000.0 nM

Sequence of Calcium/calmodulin-dependent protein kinase type II subunit gamma (Homo sapiens) (Q13555 whole entry): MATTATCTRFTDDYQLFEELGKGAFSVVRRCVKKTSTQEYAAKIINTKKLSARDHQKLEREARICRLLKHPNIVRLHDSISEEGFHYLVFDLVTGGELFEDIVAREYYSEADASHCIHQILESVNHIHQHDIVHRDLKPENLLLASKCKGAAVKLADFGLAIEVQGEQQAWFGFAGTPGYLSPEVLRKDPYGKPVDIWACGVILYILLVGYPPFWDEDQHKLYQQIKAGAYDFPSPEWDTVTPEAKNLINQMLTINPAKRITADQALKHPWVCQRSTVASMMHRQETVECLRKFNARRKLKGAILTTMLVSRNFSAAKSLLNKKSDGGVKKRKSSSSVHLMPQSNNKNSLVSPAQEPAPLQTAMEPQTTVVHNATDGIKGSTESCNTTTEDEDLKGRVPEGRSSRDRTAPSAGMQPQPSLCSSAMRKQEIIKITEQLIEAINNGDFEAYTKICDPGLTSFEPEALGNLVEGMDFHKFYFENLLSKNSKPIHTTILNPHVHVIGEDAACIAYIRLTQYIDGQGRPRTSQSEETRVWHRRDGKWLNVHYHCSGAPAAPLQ
Sequence of Cyclin-dependent kinase 8 (Homo sapiens) (P49336 whole entry): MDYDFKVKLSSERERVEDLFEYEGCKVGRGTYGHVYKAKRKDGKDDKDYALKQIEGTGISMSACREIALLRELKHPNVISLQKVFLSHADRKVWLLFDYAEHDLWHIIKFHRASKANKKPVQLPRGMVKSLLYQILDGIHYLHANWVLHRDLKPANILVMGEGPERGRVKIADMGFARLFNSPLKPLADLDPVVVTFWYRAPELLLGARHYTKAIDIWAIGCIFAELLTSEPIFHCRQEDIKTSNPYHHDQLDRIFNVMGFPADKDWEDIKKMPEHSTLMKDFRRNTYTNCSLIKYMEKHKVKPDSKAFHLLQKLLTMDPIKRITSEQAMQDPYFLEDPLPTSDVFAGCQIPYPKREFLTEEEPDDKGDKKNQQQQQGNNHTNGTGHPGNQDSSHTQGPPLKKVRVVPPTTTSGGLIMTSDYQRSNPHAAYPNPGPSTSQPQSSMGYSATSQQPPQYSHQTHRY
Sequence of Inhibitor of nuclear factor kappa-B kinase subunit beta (Homo sapiens) (O14920 whole entry): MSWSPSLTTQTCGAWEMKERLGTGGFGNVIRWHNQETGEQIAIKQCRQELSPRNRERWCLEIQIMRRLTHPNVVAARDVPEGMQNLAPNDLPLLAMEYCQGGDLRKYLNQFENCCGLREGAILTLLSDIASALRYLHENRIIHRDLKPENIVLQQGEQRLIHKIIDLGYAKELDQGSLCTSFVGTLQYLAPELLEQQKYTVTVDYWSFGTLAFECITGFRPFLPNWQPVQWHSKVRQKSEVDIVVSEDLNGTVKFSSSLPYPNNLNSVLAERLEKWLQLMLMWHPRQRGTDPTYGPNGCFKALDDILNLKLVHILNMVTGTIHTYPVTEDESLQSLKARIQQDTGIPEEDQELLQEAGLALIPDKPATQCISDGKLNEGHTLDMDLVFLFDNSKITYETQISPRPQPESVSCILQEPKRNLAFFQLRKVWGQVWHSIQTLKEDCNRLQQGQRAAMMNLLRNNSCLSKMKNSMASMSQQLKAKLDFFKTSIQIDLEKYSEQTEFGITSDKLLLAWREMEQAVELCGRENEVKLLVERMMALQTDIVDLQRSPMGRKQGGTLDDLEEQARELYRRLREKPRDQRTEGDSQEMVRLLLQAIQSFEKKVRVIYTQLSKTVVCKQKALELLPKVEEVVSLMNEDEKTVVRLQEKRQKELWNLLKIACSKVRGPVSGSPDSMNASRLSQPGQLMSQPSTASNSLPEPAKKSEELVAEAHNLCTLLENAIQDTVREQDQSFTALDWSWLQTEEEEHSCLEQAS
Sequence of Tyrosine-protein kinase Mer (Homo sapiens) (Q12866 whole entry): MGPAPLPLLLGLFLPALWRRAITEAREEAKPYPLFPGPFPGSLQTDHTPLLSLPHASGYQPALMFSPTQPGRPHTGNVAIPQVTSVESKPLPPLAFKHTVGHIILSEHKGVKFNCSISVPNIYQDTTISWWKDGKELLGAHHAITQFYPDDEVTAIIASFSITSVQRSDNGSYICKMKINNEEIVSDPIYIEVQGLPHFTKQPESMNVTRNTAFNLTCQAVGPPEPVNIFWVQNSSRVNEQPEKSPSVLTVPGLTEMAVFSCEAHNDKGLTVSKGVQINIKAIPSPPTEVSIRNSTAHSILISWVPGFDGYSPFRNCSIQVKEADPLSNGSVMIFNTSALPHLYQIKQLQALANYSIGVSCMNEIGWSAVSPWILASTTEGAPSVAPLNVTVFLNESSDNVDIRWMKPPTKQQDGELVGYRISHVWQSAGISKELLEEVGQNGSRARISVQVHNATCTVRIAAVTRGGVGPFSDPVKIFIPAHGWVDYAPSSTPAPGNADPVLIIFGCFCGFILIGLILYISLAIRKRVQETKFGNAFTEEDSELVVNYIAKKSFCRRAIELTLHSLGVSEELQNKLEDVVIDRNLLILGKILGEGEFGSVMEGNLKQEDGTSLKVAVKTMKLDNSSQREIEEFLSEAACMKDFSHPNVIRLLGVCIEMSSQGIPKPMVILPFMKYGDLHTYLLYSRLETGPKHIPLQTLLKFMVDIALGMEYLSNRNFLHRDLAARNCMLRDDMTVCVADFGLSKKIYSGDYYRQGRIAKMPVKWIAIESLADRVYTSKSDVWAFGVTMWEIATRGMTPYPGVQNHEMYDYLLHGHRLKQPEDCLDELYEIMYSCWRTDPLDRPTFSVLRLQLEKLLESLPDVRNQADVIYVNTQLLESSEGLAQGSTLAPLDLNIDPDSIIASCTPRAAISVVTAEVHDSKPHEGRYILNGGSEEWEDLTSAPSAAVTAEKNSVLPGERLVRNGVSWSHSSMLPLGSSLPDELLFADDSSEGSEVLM
Sequence of Serine/threonine-protein kinase B-raf (Homo sapiens) (P15056 whole entry): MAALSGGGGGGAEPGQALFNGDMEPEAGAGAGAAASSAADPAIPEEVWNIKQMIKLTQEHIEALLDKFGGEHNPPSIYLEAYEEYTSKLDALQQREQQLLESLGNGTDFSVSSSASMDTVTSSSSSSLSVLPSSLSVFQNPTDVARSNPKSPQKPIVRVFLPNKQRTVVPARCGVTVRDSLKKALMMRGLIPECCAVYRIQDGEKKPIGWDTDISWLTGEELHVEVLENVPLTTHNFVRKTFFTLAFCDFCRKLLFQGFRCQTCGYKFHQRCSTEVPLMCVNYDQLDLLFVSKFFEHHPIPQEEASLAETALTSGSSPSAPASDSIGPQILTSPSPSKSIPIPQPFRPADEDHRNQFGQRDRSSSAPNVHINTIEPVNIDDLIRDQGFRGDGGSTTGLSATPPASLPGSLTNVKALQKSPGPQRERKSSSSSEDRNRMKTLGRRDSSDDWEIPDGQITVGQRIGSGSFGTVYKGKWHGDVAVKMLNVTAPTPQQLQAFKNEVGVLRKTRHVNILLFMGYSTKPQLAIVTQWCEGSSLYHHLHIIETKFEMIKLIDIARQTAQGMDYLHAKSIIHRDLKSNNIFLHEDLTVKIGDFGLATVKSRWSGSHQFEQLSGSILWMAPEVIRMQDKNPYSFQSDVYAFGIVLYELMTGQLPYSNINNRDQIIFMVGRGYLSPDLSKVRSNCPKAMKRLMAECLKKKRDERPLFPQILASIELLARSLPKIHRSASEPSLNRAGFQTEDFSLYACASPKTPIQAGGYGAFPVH
Sequence of Serine/threonine-protein kinase DCLK3 (Homo sapiens) (Q9C098 whole entry): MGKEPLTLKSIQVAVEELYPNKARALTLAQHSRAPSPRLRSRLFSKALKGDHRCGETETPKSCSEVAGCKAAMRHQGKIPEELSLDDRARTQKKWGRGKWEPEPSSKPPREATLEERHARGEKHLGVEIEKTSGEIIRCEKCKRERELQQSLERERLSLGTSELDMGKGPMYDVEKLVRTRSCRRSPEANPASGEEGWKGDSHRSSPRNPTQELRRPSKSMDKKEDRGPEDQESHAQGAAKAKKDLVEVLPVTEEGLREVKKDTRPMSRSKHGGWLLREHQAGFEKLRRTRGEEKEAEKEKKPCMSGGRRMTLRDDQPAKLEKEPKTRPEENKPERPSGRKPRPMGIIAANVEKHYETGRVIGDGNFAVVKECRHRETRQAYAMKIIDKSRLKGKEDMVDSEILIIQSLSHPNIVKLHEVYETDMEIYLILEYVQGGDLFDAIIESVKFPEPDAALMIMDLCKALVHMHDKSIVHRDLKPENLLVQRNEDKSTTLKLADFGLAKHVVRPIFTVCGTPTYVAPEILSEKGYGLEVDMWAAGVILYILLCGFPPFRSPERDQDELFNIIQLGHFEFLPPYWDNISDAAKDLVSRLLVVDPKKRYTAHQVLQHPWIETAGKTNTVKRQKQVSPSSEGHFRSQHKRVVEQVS
Sequence of MAP kinase-interacting serine/threonine-protein kinase 1 (Homo sapiens) (Q9BUB5 whole entry, looked up): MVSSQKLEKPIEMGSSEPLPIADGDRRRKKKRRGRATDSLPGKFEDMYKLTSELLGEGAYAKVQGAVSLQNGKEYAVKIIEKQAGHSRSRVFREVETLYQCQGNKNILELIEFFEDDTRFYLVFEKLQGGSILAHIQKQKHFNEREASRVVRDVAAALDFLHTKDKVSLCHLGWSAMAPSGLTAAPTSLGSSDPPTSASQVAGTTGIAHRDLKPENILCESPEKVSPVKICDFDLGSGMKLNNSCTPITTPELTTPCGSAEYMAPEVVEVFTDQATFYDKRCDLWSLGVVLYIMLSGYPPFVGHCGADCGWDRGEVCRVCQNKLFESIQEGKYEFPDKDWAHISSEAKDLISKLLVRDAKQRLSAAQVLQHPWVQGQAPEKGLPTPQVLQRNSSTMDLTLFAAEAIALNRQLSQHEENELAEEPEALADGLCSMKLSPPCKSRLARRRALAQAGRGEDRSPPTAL
Sequence of Casein kinase I isoform alpha-like (Homo sapiens) (Q8N752 whole entry, canonical isoform): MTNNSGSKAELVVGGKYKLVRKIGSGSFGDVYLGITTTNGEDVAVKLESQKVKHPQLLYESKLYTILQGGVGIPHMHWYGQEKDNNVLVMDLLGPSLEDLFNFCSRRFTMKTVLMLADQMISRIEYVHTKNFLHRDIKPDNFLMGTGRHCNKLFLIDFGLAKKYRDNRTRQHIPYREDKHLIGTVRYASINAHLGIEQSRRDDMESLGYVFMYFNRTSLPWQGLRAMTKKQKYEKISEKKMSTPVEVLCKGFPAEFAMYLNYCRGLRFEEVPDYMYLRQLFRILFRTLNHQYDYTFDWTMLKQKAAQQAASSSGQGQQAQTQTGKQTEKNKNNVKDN

CC(C)(C)OC(=O)N1CCCC1CNC1CCC(c2cc(F)ccc2F)(S(=O)(=O)c2ccc(Cl)cc2)CC1 (stereo not given) [GSI-NC]
Ki [1]: 234 nM

O=S(=O)(NC1CCC(c2cc(F)ccc2F)(S(=O)(=O)c2ccc(Cl)cc2)CC1)C(F)(F)F (stereo not given) [MRK-560]
residual activity [2]: 92% | residual activity [3]: 87% | residual activity [4]: 100% | residual activity [5]: 100% | residual activity [6]: 68% | residual activity [7]: 100% | residual activity [8]: 100% | residual activity [9]: 93% | residual activity [10]: 84% | residual activity [11]: 100% | residual activity [12]: 98% | residual activity [13]: 100% | residual activity [14]: 100% | residual activity [15]: 100% | residual activity [16]: 99% | residual activity [17]: 100% | residual activity [18]: 97% | residual activity [19]: 100% | residual activity [20]: 86% | residual activity [21]: 93% | residual activity [22]: 100% | residual activity [23]: 100% | residual activity [24]: 100% | residual activity [25]: 100% | residual activity [26]: 100% | residual activity [27]: 100% | residual activity [28]: 70% | residual activity [29]: 93% | residual activity [30]: 100% | residual activity [31]: 93% | residual activity [32]: 100% | residual activity [33]: 100% | residual activity [34]: 100% | residual activity [35]: 100% | residual activity [36]: 87% | residual activity [37]: 92% | residual activity [38]: 84% | residual activity [39]: 100% | residual activity [40]: 100% | residual activity [41]: 93% | residual activity [42]: 100% | residual activity [43]: 100% | residual activity [44]: 82% | residual activity [45]: 100%
